Literature values, collected in US20030203047A1 (priority 2002, published 2003).
Read-outs that look alike come from different tables or passages of the source.

Experiments:
HIV-infected men = conditions: pharmacological doses
healthy young men = conditions: 300 mg/wk for six weeks
patients on dialysis = conditions: compared with placebo
[1] = in vivo
young female rats = conditions: constant infusion
[2] = for plasma testosterone: panhypopituitarism
androgen receptor = conditions: seminal vesicle; relative to the unreduced steroid
hypogonadal men = conditions: for waking erection: Asian group of hypogonadal men; for sexual interest and activity, spontaneous erection: Caucasian group of hypogonadal men
[3] = test system: prostate and seminal vesicle weights; levator ani muscles
[4] = supplementation
[5] = supplementation; remark: listed apart in the source
aromatase = target: T1, aromatase (Homo sapiens, UniProt P11511); conditions: compared with chrysin, AG and ANG
T1 sequence (P11511 1-503): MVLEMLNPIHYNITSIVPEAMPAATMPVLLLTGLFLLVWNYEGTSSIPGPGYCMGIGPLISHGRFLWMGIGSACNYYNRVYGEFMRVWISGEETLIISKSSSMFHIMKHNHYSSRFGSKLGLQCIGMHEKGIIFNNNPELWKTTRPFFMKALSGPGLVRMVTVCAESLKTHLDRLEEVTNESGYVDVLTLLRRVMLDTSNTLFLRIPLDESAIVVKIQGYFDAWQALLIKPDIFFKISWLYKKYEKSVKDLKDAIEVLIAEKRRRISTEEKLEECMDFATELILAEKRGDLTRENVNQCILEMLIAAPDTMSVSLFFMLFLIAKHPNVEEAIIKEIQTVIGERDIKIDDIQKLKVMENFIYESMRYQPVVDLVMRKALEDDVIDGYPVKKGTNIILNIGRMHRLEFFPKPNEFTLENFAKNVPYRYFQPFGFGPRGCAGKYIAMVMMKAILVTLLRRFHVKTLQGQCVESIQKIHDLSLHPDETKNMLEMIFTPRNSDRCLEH

CCCCCCCCCC(=O)O[C@H]1CC[C@H]2[C@@H]3CCC4=CC(=O)CC[C@@H]4[C@H]3CC[C@]12C [nandrolone decanoate]
total weight, lean body mass, body cell mass, muscle size and strength (HIV-infected men): significant gains
circumferences with significant increases (of fifteen) (healthy young men): shoulders and chest

C[C@]12CC[C@H]3[C@@H](CCC4=CC(=O)CC[C@@H]43)[C@@H]1CC[C@@H]2O [nandrolone, 19-nor-testosterone]
lean body mass (patients on dialysis): increased significantly
adverse finding associated with use [1]: azoospermia
decrease in HDL-cholesterol [1]: 25-27%
energy expenditure (young female rats): increased

C[C@]12CC[C@H]3[C@@H](CCC4=CC(=O)CC[C@@]43C)[C@@H]1CC[C@@H]2O [Testosterone]
proportion of protein in the body composition (young female rats): increased

C[C@]12CC[C@H]3[C@@H](CC=C4C[C@@H](O)CC[C@@]43C)[C@@H]1CC[C@@H]2O [5-androstenediol]
proportion of protein in the body composition (young female rats): increased

C[C@]12CC[C@H](O)CC1=CC[C@@H]1[C@@H]2CC[C@]2(C)C(=O)CC[C@@H]12 [DHEA, dehydro-epiandrosterone]
plasma testosterone ([2]; 50 mg dose): levels similar to those observed in young women
increase of plasma delta 4-androstenedione ([2]; 50 mg or 200 mg): significant and dose dependent
plasma estrogens, particularly estradiol ([2]; 50 mg or 200 mg): significant and dose dependent increase
plasma testosterone ([2]; 200 mg dose): slightly below the levels observed in normal men
increase of plasma dihydrotestosterone levels ([2]; both doses): small

C[C@]12CCC(=O)C[C@@H]1CC[C@@H]1[C@@H]2CC[C@]2(C)[C@@H](O)CC[C@@H]12 [DHT, 5α-androstan-17β-ol-3-one]
change of affinity to the androgen receptor on 5-alpha-reduction (androgen receptor): increasing by seven- to eight-fold

CCCCCCC(=O)O[C@H]1CC[C@H]2[C@@H]3CCC4=CC(=O)CC[C@]4(C)[C@H]3CC[C@]12C [TE, testosterone enanthate]
circumferences with significant increases (of fifteen) (healthy young men): shoulders
waking erection (hypogonadal men): increased
sexual interest and activity, spontaneous erection (hypogonadal men): significant increases

C[C@@H]1CC2=CC(=O)CC[C@@H]2[C@H]2CC[C@]3(C)[C@@H](O)CC[C@H]3[C@@H]21 [MENT, 7α-methyl-19-nor-testosterone]
androgenic potency relative to testosterone ([3]; measured by prostate and seminal vesicle weights): four- to five-times
anabolic potency relative to testosterone ([3]; measured in the levator ani muscles): ten-times
waking erection (hypogonadal men): increased
sexual interest and activity, spontaneous erection (hypogonadal men): significant increases

C[C@]12CC[C@H]3[C@@H](CCC4=C[C@@H](O)CC[C@@]43C)[C@@H]1CC[C@@H]2O [4-androstenediol]
urine testosterone concentration relative to 4-androstenedione [4]: 10 fold
serum testosterone [5]: elevations

COc1ccc(-c2coc3cc(O)cc(O)c3c2=O)cc1 [Biochanin A, 5,7-dihydroxy-4′-methoxyisoflavone]
aromatase inhibition (in words) (aromatase): to a lesser degree

C[C@]12CCC(=O)C=C1CC[C@@H]1[C@@H]2CC[C@]2(C)C(=O)CC[C@@H]12 [4-androstenedione]
serum testosterone [5]: elevations
